Measurements taken from US5858992A, “Non-reducing saccharides, their preparation and use” (Kabushiki Kaisha Hayashibara Seibutsu Kagaku Kenkyujo, priority 1995, dated 1999).

Key:
[1] = test system: Escherichia coli IFO 3301; test: Assimilation test by intestinal microorganism; type: cell-based; conditions: 0.5 w/v % saccharide in PYF broth, 37° C., 96 hours; free of sugar: -
[2] = test system: Bifidobacterium bifidum JCM 1255; test: Assimilation test by intestinal microorganism; type: cell-based; conditions: 0.5 w/v % saccharide in PYF broth, 37° C., 96 hours; free of sugar: -
[3] = test system: Bifidobacterium longum JCM 1217; test: Assimilation test by intestinal microorganism; type: cell-based; conditions: 0.5 w/v % saccharide in PYF broth, 37° C., 96 hours; free of sugar: -
[4] = biological target: T1, Salivary amylase (Homo sapiens, UniProt P0DUB6); test: in vitro
T1 sequence (P0DUB6 16-511): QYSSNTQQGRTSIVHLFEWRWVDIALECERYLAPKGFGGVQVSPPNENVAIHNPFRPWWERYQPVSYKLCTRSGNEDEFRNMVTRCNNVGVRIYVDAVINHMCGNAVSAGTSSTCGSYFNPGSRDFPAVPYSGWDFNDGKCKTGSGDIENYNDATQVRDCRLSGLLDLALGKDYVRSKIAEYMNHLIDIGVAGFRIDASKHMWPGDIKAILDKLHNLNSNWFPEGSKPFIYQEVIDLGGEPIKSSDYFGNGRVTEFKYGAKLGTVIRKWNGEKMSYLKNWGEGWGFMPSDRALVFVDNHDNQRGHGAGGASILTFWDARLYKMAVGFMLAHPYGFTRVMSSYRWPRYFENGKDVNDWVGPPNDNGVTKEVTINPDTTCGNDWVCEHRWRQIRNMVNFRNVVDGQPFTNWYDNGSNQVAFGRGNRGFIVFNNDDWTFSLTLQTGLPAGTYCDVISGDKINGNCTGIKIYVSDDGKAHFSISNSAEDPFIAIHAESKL

[5] = test system: Bacteroides vulgatus JCM 5826; test: Assimilation test by intestinal microorganism; type: cell-based; conditions: 0.5 w/v % saccharide in PYF broth, 37° C., 96 hours; free of sugar: -
[6] = test system: Lactobacillus plantarum IFO 3070; test: Assimilation test by intestinal microorganism; type: cell-based; conditions: 0.5 w/v % saccharide in PYF broth, 37° C., 96 hours; free of sugar: -
[7] = test system: Eubacterium aerofaciens ATCC 25986; test: Assimilation test by intestinal microorganism; type: cell-based; conditions: 0.5 w/v % saccharide in PYF broth, 37° C., 96 hours; free of sugar: -
[8] = test system: Clostridium sporogenes JCM 1416; test: Assimilation test by intestinal microorganism; type: cell-based; conditions: 0.5 w/v % saccharide in PYF broth, 37° C., 96 hours; free of sugar: ±
Protocol: To evaluate the growth rate of and to judge the assimilability by the microorganisms, the resultant broth was diluted 5-fold, and the turbidity of the dilution was measured at a wavelength of 750 nm in a 1-cm light-path cell. […] The criteria were in Table 3, and the results were in Tables 4 and 5: […]

[9] = test system: Bacteroides uniformis JCM 5828; test: Assimilation test by intestinal microorganism; type: cell-based; conditions: 0.5 w/v % saccharide in PYF broth, 37° C., 96 hours; free of sugar: -
[10] = test system: Lactobacillus fermentum IFO 3959; test: Assimilation test by intestinal microorganism; type: cell-based; conditions: 0.5 w/v % saccharide in PYF broth, 37° C., 96 hours; free of sugar: -
[11] = Maillard reaction (coloration with glycine); type: physicochemical; conditions: 10 w/v % saccharide, one w/v % glycine, 50 mM phosphate buffer pH 7.0, 100° C. for 90 min, 1-cm light-path cell
[12] = in vitro; conditions: gastric acid
[13] = test system: Bifidobacterium animalis JCM 1190; test: Assimilation test by intestinal microorganism; type: cell-based; conditions: 0.5 w/v % saccharide in PYF broth, 37° C., 96 hours; free of sugar: -
[14] = test system: Clostridium ramosum JCM 1298; test: Assimilation test by intestinal microorganism; type: cell-based; conditions: 0.5 w/v % saccharide in PYF broth, 37° C., 96 hours; free of sugar: -
[15] = test system: Bifidobacterium adolescentis JCM 1275; test: Assimilation test by intestinal microorganism; type: cell-based; conditions: 0.5 w/v % saccharide in PYF broth, 37° C., 96 hours; free of sugar: -
[16] = test system: Bacteroides distasonis JCM 5825; test: Assimilation test by intestinal microorganism; type: cell-based; conditions: 0.5 w/v % saccharide in PYF broth, 37° C., 96 hours; free of sugar: -
[17] = test system: Peptostreptococcus prevotii ATCC 9321; test: Assimilation test by intestinal microorganism; type: cell-based; conditions: 0.5 w/v % saccharide in PYF broth, 37° C., 96 hours; free of sugar: -
[18] = test system: Streptococcus faecalis IAM 10065; test: Assimilation test by intestinal microorganism; type: cell-based; conditions: 0.5 w/v % saccharide in PYF broth, 37° C., 96 hours; free of sugar: -
[19] = test system: Streptococcus sobrinus ATCC 27351; test: Acid formation by dental caries-inducing microorganisms; conditions: for pH at each fermentation time (min): living wet cells, 0.02M saccharide, Stephen buffer pH 7.0, 37° C.
[20] = test system: Bifidobacterium infantis JCM 1222; test: Assimilation test by intestinal microorganism; type: cell-based; conditions: 0.5 w/v % saccharide in PYF broth, 37° C., 96 hours; free of sugar: -
[21] = test system: Clostridium perfringens JCM 3816; type: cell-based; conditions: 0.5 w/v % saccharide in PYF broth, 37° C., 96 hours; free of sugar: -
[22] = biological target: T2, Pancreatic juice amylase (Homo sapiens, UniProt P04746); test: in vitro
T2 sequence (P04746 16-511): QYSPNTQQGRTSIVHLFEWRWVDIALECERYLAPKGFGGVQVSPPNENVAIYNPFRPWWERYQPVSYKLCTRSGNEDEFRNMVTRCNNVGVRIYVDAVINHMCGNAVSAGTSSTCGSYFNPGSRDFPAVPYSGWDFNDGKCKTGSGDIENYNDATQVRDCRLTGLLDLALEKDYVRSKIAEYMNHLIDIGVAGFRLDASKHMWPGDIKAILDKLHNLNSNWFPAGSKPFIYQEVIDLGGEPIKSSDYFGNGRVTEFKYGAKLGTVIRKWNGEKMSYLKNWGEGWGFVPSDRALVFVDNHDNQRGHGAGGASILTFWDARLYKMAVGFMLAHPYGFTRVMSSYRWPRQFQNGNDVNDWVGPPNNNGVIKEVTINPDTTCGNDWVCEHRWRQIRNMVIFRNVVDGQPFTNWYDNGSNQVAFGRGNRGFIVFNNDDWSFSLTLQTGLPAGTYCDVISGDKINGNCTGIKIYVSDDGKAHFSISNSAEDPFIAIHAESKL

[23] = test system: Bifidobacterium breve JCM 1192; test: Assimilation test by intestinal microorganism; type: cell-based; conditions: 0.5 w/v % saccharide in PYF broth, 37° C., 96 hours; free of sugar: -
[24] = test system: glucosyltransferase; test: Inhibition of insoluble glucan formation by glucosyltransferase from dental caries-inducing microorganism; type: biochemical, Streptococcus sobrinus strain (ATCC 27351); conditions: sucrose plus test saccharide (one ml of one w/v % each), 37° C., 16 hours
Protocol: To a mixture solution consisting of one ml of one w/v % sucrose solution, one ml of one w/v % of a test saccharide solution, and 1.5 ml of 0.1M phosphate buffer (pH 6.8) was added 0.5 ml solution containing a crude glucosyltransferase specimen in a total protein content of 10 mg, and the mixture solution was placed in a small test tube which was then fixed and slanted to give a grade 30 degrees and allowed to react at 37° C. for 16 hours. The reaction mixture was transferred gently to another test tube and mixed with a solution obtained by washing carefully with 4 ml water the remaining substances adhered to the inner walls of the small test tube, and the mixture solution was centrifuged to obtain a precipitate as a non-adsorbed glucan. The amounts of the adsorbed- and non-adsorbed glucans thus obtained were respectively quantified by the anthrone-sulfuric acid method, and the total amount of them was regarded as the amount of the formed insoluble glucans. As a control system, a reaction system using water in place of the test saccharide solution, i.e. a reaction system using sucrose as a saccharide, was provided.

[25] = test system: Clostridium butyricum JCM 1391; type: cell-based; conditions: 0.5 w/v % saccharide in PYF broth, 37° C., 96 hours; free of sugar: -
[26] = in vitro; conditions: small intestinal mucosa enzyme

Row | Structure (SMILES) | Judgement of assimilation (turbidity at 750 nm, ×5) [1] | Judgement of assimilation (turbidity at 750 nm, ×5) [2] | Judgement of assimilation (turbidity at 750 nm, ×5) [3] | metabolised [4] [%] | Judgement of assimilation (turbidity at 750 nm, ×5) [5] | Judgement of assimilation (turbidity at 750 nm, ×5) [6] | Judgement of assimilation (turbidity at 750 nm, ×5) [7] | Judgement of assimilation (turbidity at 750 nm, ×5) [9] | Judgement of assimilation (turbidity at 750 nm, ×5) [10] | Coloration degree (at a wavelength of 480 nm) [11] | Judgement of assimilation (turbidity at 750 nm, ×5) [13] | Judgement of assimilation (turbidity at 750 nm, ×5) [14] | Judgement of assimilation (turbidity at 750 nm, ×5) [15] | Judgement of assimilation (turbidity at 750 nm, ×5) [16] | Judgement of assimilation (turbidity at 750 nm, ×5) [17] | Judgement of assimilation (turbidity at 750 nm, ×5) [18] | pH reduction / acid fermentation, in words [19] | pH at each fermentation time (min) ([19]; 0 min) | pH at each fermentation time (min) ([19]; 5 min) | pH at each fermentation time (min) ([19]; 15 min) | further results
1 | OC[C@H]1O[C@H](OC[C@H]2OC(O)[C@H](O)[C@@H](O)[C@@H]2O)[C@H](O)[C@@H](O)[C@@H]1O (stereo partly shown) [Isomaltose, reference compound] | - (Less than 0.1) | + (0.15 or higher but less than 0.2) | ++ (0.2 or higher but less than 0.3) | 0 | - (Less than 0.1) | - (Less than 0.1) | + (0.15 or higher but less than 0.2) | - (Less than 0.1) | - (Less than 0.1) | 0.938 | +++ (0.3 or higher) | - (Less than 0.1) | +++ (0.3 or higher) | + (0.15 or higher but less than 0.2) | - (Less than 0.1) | + (0.15 or higher but less than 0.2) | slight | 7.0 | 7.0 | 6.9 | Judgement of assimilation (turbidity at 750 nm, ×5) [8]: ± (0.1 or higher but less than 0.15); degraded [12]: 0%; pH at each fermentation time (min) ([19]; 30 min): 6.9; pH at each fermentation time (min) ([19]; 60 min): 6.8; pH at each fermentation time (min) ([19]; 90 min): 6.7; Judgement of assimilation (turbidity at 750 nm, ×5) [20]: +++ (0.3 or higher); Judgement of assimilation (turbidity at 750 nm, ×5) [21]: ± (0.1 or higher but less than 0.15); metabolised [22]: 0.2%; Judgement of assimilation (turbidity at 750 nm, ×5) [23]: +++ (0.3 or higher)
2 | OC[C@H]1O[C@H](O[C@H]2O[C@H](CO)[C@@H](O)[C@H](O)[C@H]2O)[C@H](O)[C@@H](O)[C@@H]1O [Trehalose, α,α-trehalose, reference compound] | - (Less than 0.1) | + (0.15 or higher but less than 0.2) | ++ (0.2 or higher but less than 0.3) | 0 | + (0.15 or higher but less than 0.2) | ++ (0.2 or higher but less than 0.3) | - (Less than 0.1) | ++ (0.2 or higher but less than 0.3) | + (0.15 or higher but less than 0.2) | 0.007 | + (0.15 or higher but less than 0.2) | + (0.15 or higher but less than 0.2) | + (0.15 or higher but less than 0.2) | ++ (0.2 or higher but less than 0.3) | + (0.15 or higher but less than 0.2) | + (0.15 or higher but less than 0.2) | moderate | 7.0 | 6.7 | 5.3 | Yield of non-adsorbed glucans ([24]; sucrose alone control 923): 1,130 pg/ml; Yield of adsorbed glucans ([24]; sucrose alone control 1,160): 772 pg/mL; Inhibitory percentage (%) on insoluble glucans formation ([24]; vs sucrose alone): 8.7%; Judgement of assimilation (turbidity at 750 nm, ×5) [25]: +++ (0.3 or higher); pH at each fermentation time (min) ([19]; 30 min): 4.7; pH at each fermentation time (min) ([19]; 60 min): 4.3; pH at each fermentation time (min) ([19]; 90 min): 4.2; metabolised [26]: 1.3%; Judgement of assimilation (turbidity at 750 nm, ×5) [20]: - (Less than 0.1); Judgement of assimilation (turbidity at 750 nm, ×5) [21]: +++ (0.3 or higher); metabolised [22]: 0%; Judgement of assimilation (turbidity at 750 nm, ×5) [23]: - (Less than 0.1)
